Source: patent publication US20230203482A1, “Methods of Rescuing Stop Codons via Genetic Reassignment with ACE-tRNA” (THE WISTAR INSTITUTE OF ANATOMY AND BIOLOGY, priority 2017, published 2023)

Test system: native stop codons (TAA, TAG, TGA) of HEK293 transcripts
Experiment: Ribosome footprint profiling of transcriptome-wide 3′UTRs
Assay type: cell-based, human
Details: for ribosome occupancy at each nucleotide in the 3′UTR downstream of stop codons: HEK293, log 2-fold change versus control; for readthrough of native stop codons / global translation termination: HEK293, summary in discussion
Excerpt: The question was raised whether ACE-tRNAs that show efficacious suppression of premature stop codons may also induce global readthrough of native stop codons. To address this potential “off target” suppression, a transcriptome-wide quantitative profile of actively engaged ribosomes on all cellular transcripts was obtained by generating libraries of ribosome footprints from HEK293 cells expressing exogenous ACE-tRNAs or a control mock plasmid (puc57GG). Streptomycin was removed from the growth media to prevent readthrough artifacts. For comparison, the ribosome footprint library was also generated from cells in the presence or absence of G418 (150 μM, 48 hours). […] Only transcripts with a minimum threshold of 5 RPKM in the coding sequence and 0.5 RPKM in the 3′UTR in two replicate libraries were included for the quantitation comparison (254 transcripts in G418 and 495-748 transcripts in ACE-tRNAs). […] ACE-tRNAs examined here had no detectable change of 3′UTR ribosome density with the exception of ACE-tRNA Gln-UAA and Arg-UGA which induced approximately a 2-fold increase in 3′UTR ribosome density for the cognate stop codon complimentary to the ACE-tRNA anticodon. Understanding the biological significance of 2-fold readthrough of protein stops will require further study, but this effect is substantially lower compared to the 100- to 1000-fold suppression of PTC for the same ACE-tRNA.
Multiple in-frame stop codons are frequently found at the end of genes^37-39 and may cause a minor difference in overall 3′UTR ribosome density for ACE-tRNA and G418 treatment. Ribosome occupancy was examined at each nucleotide in the 3′UTR within a 60 nt region downstream of the stop codons. […] Reads were normalized per total million-mapped reads, compared against control cells, and reported as a log 2-fold change as in panel A. More than 5,200 transcripts were mapped to at least 1 footprint in the region of interest. […] Taken together, the ribosome profiling data argue that efficiency of native stop codon suppression by ACE-tRNAs is generally low, and markedly less than the level of PTC suppression.
Ribosome Footprint Profiling Library preparation. HEK293 cells transiently transfected with ACE-tRNAs and control plasmid (puc57GG) were grown in standard grown media in the absence of Pen-Strep for 48 h. Libraries were prepared as described^55, with a few modifications. Briefly, cells were rapidly cooled by addition of ice-cold PBS, lysed in lysis buffer (20 mM Tris-HCl/pH7.4, 150 mM NaCl, 5 mM MgCl2, 1 mM DTT, 1% (v/v) Triton X-100, and 25 U ml^−1 Turbo DNase I) for 10 min on ice, and triturated with ten times through a 26-G needle. After clearance by centrifugation at 16,000 g for 10 min at 4° C., the lysates were digested with 100 U RNase I (Ambion, USA) per A260 lysate at room temperature for 45 min with gentle agitation prior to adding 200 U RiboLock RNase Inhibitor (Thermo Scientific). Ribosome protected mRNA fragments were then isolated by loading lysates onto a 1M sucrose cushion prepared in modified polysome buffer (20 mM Tris-HCl/pH7.4, 150 mM NaCl, 8.5 mM MgCl2, 0.5 mM DTT, 20 U ml^−1 RiboLock RNase Inhibitor) and centrifugated at 70,000 rpm at 4° C. for 2 h using a Beckmen TLA-110 rotor. Ribosome pellets containing mRNA footprints were extracted using TRIzol and separated on a denaturing 12% polyacrylamide gel containing 8M urea. RNA fragments with sizes ranging from 26 to 34 nt were manually excised from the gel stained with SYBR Gold (Invitrogen) and isolated to generate the ribosome-protected fragment library. Contaminating rRNA fragments depleted using a Ribo-Zero kit (Illumina). 3′ Oligonucleotide adaptor ligation, reverse transcription, circularization, and secondary rRNA depletion using biotinylated rRNA depletion oligos (Table 9) were performed as described^55. Libraries were barcoded using indexing primers for each sample during PCR amplification. […]

## Trpchr17.trna39: top performing tryptophan ACE-tRNA UGA suppressor, SEQ ID NO: 48
  ribosome occupancy at each nucleotide in the 3′UTR downstream of stop codons: no observable change of ribosome occupancy
  readthrough of native stop codons / global translation termination: no significant effect on global translation termination

B1: Glychr19.trna2: top performing glycine ACE-tRNA UGA suppressor, SEQ ID NO: 53 (nucleic acid)
chain: GCGTTGGTGGTATAGTGGTTAGCATAGCTGCCTTCAAAGCAGTTGACCCGGGTTCGATTCCCGGCCAACGCA
modifications: chemistry not fully specified
  ribosome occupancy at each nucleotide in the 3′UTR downstream of stop codons: no observable change of ribosome occupancy
  readthrough of native stop codons / global translation termination: no significant effect on global translation termination
